We go through 13 compounds from article PMC3638464, “The transcriptional regulator CprK detects chlorination by combining direct and indirect readout mechanisms” (Philosophical Transactions of the Royal Society B: …, 2013).

The target of series [1] is CprK (Desulfitobacterium hafniense, UniProt B8FW11, C200S). In words: cell-based. Type of series: cell-based. Conditions: for n (Hill coefficient) / apparent Kd: in vivo, Hill fit; for n (Hill coefficient) / increase in fluorescence levels (in words): CprK C200S; for increase in fluorescence levels (in words): in vivo reporter; for apparent Kd: E. coli JM109 DE3, pGFPUV-DB7 + CprK C200S, effector concentration at half Fmax. An excerpt:
Previous studies have shown that OCPA-dependent transcriptional activation by CprK can be monitored in Escherichia coli. To avoid any effects coupled to the redox state of the cell, we used a CprK C200S mutant as the basis for all our studies (referred to hereafter as CprK), as it was previously shown that oxidative disulfide bond formation involving C200 inactivates the regulator [23]. A region comprising 123 nucleotides of the upstream dehalobox promotor region of CprA1, containing CprK binding element dehalobox 7 (DB7), was cloned into pGFPUV in order to create a novel in vivo reporter system that makes use of an optimized variant of the green fluorescent protein (GFPUV) from Aequorea victoria. […] No significant increase in fluorescence levels could be detected in the presence of OCPA or similar compounds. […] By contrast, addition of 0.6 μM OCPA to the media leads to a nearly 10-fold increase in fluorescence levels, indicating CprK-mediated, OCPA-dependent transcriptional activation of the GFPUV gene occurs within the E. coli host. […] Our apparent Kd is the binding constant calculated as the concentration at which effector induces half Fmax (maximum fluorescence). […] In contrast to the direct measurement of formation of the CprK : OCPA complex for the in vitro experiment, the in vivo data probably report on the formation of the (CprK : OCPA : dehalobox : RNA polymerase) quaternary complex. […] It appears that under the conditions used for the pGFPUV-DB7-based system, the apparent Kd for OCPA is approximately 100-fold smaller than the established […] Kd values. […] It is important to keep in mind that transport processes could affect the intracellular OCPA concentrations across the membrane, although it would seem logical to assume this would affect OCPA and OCPA-like components in a similar manner. To confirm the apparent Kd value observed reflects inherent CprK affinity for the effector molecule, we measured the increase in fluorescence levels for a range of aromatic compounds.
Overnight culture (150 μl) was plated onto 96-well optical bottom plates (Nunc). OCPA-related compounds (table 3) were then added to various end concentrations, and the plates placed on a rotary shaker at 37°C for 3 h. GFP fluorescence levels were measured using a Synergy HT microplate reader (BioTek) using a 400 nm, 30 nm bandpass excitation filter and a 508 nm, 20 nm bandpass emission filter. Data were collected using Gen5 v. 1.05 (Biotek) software. Fluorescence was normalized against cell density and measured by absorbance at 600 nm. The fluorescence ratio was plotted against effector concentration, and apparent Kd of binding was calculated using nonlinear curve fitting to a Hill plot.

For series [2] the following is noted: assigned value, source not stated; cited from earlier work.
Series [3] has as its system CprK. Conditions: cited from earlier work.
Series [4] deals with CprK Y76F (Desulfitobacterium hafniense, UniProt B8FW11, C200S/Y76F). In words: In vivo GFPUV-DB7 reporter assay, Y76F CprK mutant. Type of series: cell-based. On the procedure: (§1) Table 1 and figure 3 show the dependence of fluorescence levels on OCPA concentrations for Y76F, G85A, G85P and K133L CprK mutants. […] Compared with the apparent Kd of WT CprK (0.019 ± 0.002 μM) for OCPA, the Y76F mutant has an approximately 500-fold decreased affinity for OCPA. The G85P mutation leads to an even more dramatic 4500-fold decrease, but this is probably not only a consequence of removal of the backbone NH hydrogen bond, but also because of the increased size and restricted conformational freedom of the proline side chain. […] While mutations at position 76 or 85 retain some activity, mutation at position 133 leads to a complete loss of transcriptional activation response. This clearly establishes K133 as the key contributor to the polar network established with the phenol moiety.
Sequence of CprK Y76F (Desulfitobacterium hafniense, UniProt B8FW11, C200S/Y76F) (B8FW11 entry or part of it Y76F/C200S): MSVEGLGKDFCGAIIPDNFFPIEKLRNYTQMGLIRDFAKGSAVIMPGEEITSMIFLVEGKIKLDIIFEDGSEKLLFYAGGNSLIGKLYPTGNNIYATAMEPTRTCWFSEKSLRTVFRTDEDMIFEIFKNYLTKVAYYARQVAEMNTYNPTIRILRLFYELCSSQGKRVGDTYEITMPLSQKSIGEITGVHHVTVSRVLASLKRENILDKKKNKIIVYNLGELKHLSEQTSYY
(§2) Overnight culture (150 μl) was plated onto 96-well optical bottom plates (Nunc). […] GFP fluorescence levels were measured using a Synergy HT microplate reader (BioTek) using a 400 nm, 30 nm bandpass excitation filter and a 508 nm, 20 nm bandpass emission filter. […] Fluorescence was normalized against cell density and measured by absorbance at 600 nm. The fluorescence ratio was plotted against effector concentration, and apparent Kd of binding was calculated using nonlinear curve fitting to a Hill plot.
(A reporter such as luciferase makes a cellular process visible.)

Series [5] relates to CprK Y76F. Details: method as in PMID 16803881. Conditions: previous study; cited from earlier work.
For a further series, the target named is CprK G85P (Desulfitobacterium hafniense, UniProt B8FW11, C200S/G85P). In words: In vivo GFPUV-DB7 reporter assay, G85P CprK mutant. The series is classed as cell-based. Here is the method: as §1, §2
Sequence of CprK G85P (B8FW11 entry or part of it G85P/C200S): as the sequence (B8FW11 entry or part of it Y76F/C200S) above, with F76Y, G85P counted along it
A further series has as its target CprK G85A (Desulfitobacterium hafniense, UniProt B8FW11, C200S/G85A). In words: In vivo GFPUV-DB7 reporter assay, G85A CprK mutant. The series is classed as cell-based. On the procedure: as §1, §2
The next series has as its system CprK K133L. In words: In vivo GFPUV-DB7 reporter assay, K133L CprK mutant. Type of series: cell-based, Desulfitobacterium hafniense. Here is the method: as §1, §2

Sequence of CprK (Desulfitobacterium hafniense, UniProt B8FW11, C200S) (B8FW11 entry or part of it C200S): as the sequence (B8FW11 entry or part of it Y76F/C200S) above, with F76Y counted along it
Sequence of CprK G85A (B8FW11 entry or part of it G85A/C200S): as the sequence (B8FW11 entry or part of it Y76F/C200S) above, with F76Y, G85A counted along it

In the case of `O=[N+]([O-])c1ccc(O)c(Br)c1` [2-bromo-4-nitrophenol], at CprK [1], the “n (Hill coefficient)” value is recorded as 2.1 ± 0.1. The “pKa value of R1 (phenol –OH)” value in series [2] is reported as “–OH (5.5)”.

Take `Nc1ccc([N+](=O)[O-])cc1Cl` [2-chloro-4-nitroaniline]: the “increase in fluorescence levels (in words)” value at CprK [1] is given as “No increase”. Further, the “apparent Kd” value on CprK [1] (3 h) is given as “no binding”.

Take `O=[N+]([O-])c1ccc(O)c(Cl)c1` [2-chloro-4-nitrophenol]: the “n (Hill coefficient)” value at CprK [1] amounted to 1.7 ± 0.2.

`O=[N+]([O-])c1ccc(O)c(F)c1` [2-fluoro-4-nitrophenol]: the “n (Hill coefficient)” value on CprK [1] was determined as 4.7 ± 0.6. For the same compound, the “pKa value of R1 (phenol –OH)” value in series [2] is “–OH (5.7)”.

For the compound `Cc1cc([N+](=O)[O-])ccc1N` [2-methyl-4-nitroaniline], the “apparent Kd” value on CprK [1] (3 h) is “no binding”.

Turning to `Cc1cc([N+](=O)[O-])ccc1O` [2-methyl-4-nitrophenol], the “difference between o-methyl-p-nitrophenol and p-nitrophenol (apparent Kd)” value on CprK [1] (apparent in vivo Kd) is “approximately sevenfold”. On CprK [1], the “n (Hill coefficient)” value was 1.8 ± 0.1. Besides, the “pKa value of R1 (phenol –OH)” value in series [2] was “–OH (7.4)”.

Regarding `O=C(O)Cc1ccc(O)c(Br)c1` [3-bromo-4-hydroxyphenylacetic acid], the “n (Hill coefficient)” value on CprK [1] is 3.2 ± 0.5. In series [2], the “pKa value of R1 (phenol –OH)” value is “–OH (8.5)”.

In the case of `O=C(O)Cc1cccc(Cl)c1` [3-chloro-phenylacetic acid], the “increase in fluorescence levels (in words)” value at CprK [1] is recorded as “No increase”. The “apparent Kd” value at CprK [1] (3 h) is “no binding”.

Regarding `O=C(O)Cc1ccc(O)c(F)c1` [3-fluoro-4-hydroxyphenylacetic acid], the “n (Hill coefficient)” value at CprK [1] was 1.8 ± 0.2. Further, in series [2], the “pKa value of R1 (phenol –OH)” value is reported as “–OH (8.8)”.

As for `Nc1ccc([N+](=O)[O-])cc1` [4-nitroaniline], the “apparent Kd” value at CprK [1] (3 h) is “no binding”.

On to `O=[N+]([O-])c1ccc(O)cc1` [4-nitrophenol], for which the “n (Hill coefficient)” value at CprK [1] is given as 2.8 ± 0.2. Also, the “pKa value of R1 (phenol –OH)” value in series [2] is listed as “–OH (7.2)”.

As to `O=C(O)Cc1ccc(O)cc1` [HPA, 4-hydroxyphenylacetic acid], at CprK [1], the “n (Hill coefficient)” value stood at 2.1 ± 0.2. In addition, the “pKa value of R1 (phenol –OH)” value in series [2] is on record as “–OH (10.2)”.

One may read the Kd as the equilibrium constant for the complex coming apart. For the compound `O=C(O)Cc1ccc(O)c(Cl)c1` [OCPA, 3-chloro-4-hydroxyphenylacetic acid], the fold induction at 0.6 µM on CprK [1] (3 h, read-out: increase in fluorescence levels) was about 10. Also, the “n (Hill coefficient)” value at CprK [1] came to 2.0 ± 0.2; at CprK Y76F [4] (in vivo, Y76F mutant), 1.6 ± 0.1; on CprK G85P (in vivo, G85P mutant) it was 1.9 ± 0.3; at CprK G85A (in vivo, G85A mutant), 1.5 ± 0.1. Moreover, the “apparent Kd smaller than established Kd values” at CprK [1] (pGFPUV-DB7 system vs earlier Kd values) is on record as “approximately 100 fold”. Further, the “increase of CprK affinity in the presence of a DNA promoter fragment” value in the series with CprK [3] is “approximately 10 fold”. The “difference in affinity between OCPA and HPA” value with CprK [3] (estimated from indirect in vitro measurements) is recorded as ~10^4. Moreover, the dissociation constant (Kd) at CprK [3] (previously reported in vitro) was 0.8 to 3.5 µM; at CprK Y76F [4] it was 10.2 ± 0.9 µM; at CprK G85P, 86.7 ± 5.8 µM; at CprK G85A it was 1.03 ± 0.06 µM. Moreover, in the series with CprK Y76F [5], the “decrease in the Kd caused by the Y76F mutation” value is recorded as “approximately 10 fold”. Besides, the “pKa value of R1 (phenol –OH)” value in series [2] is given as “–OH (8.5)”. Also, the “transcriptional activation response (in words)” value with CprK K133L is recorded as “complete loss”. Moreover, in the series on CprK K133L (in vivo), the “Kd (apparent)” value is recorded as “no response”.
